Experimental findings from patent publication US10487093B2, “Heterocyclic compounds, in particular 2-oxo-4,4,5,5,6,6,7,7-octahydrobenzoxazole derivatives, and their use as antibacterial compounds” (priority 2016, dated 2019) are described below.

Each structure is given as a SMILES string. Values after ≈ are worked out from the molar mass of the structure shown. Bounds are passed on as bounds.

The subject of assay [1] is E. coli MG1655 S83L. The class given is cell-based, Escherichia coli. Particulars: compared to the isogenic parent strain E. coli MG1655; S83L mutation on DNA gyrase subunit GyrA.
In assay [2] the test system is Escherichia coli ATCC 25922. In words: MIC, broth microdilution (CLSI) versus planktonic bacteria. Type of assay: cell-based. As to conditions: ATCC25922; Escherichia coli ATCC 25922; 16-20 h; mode of three independent experiments; read-out: MIC, Ec ATCC 25922.
For assay [3], the system named is Enterobacter cloacae NCTC 13406. Described as above. As to conditions: NCTC13406; Enterobacter cloacae NCTC 13406; 16-20 h; mode of three independent experiments; read-out: MIC, Ecl NCTC 13406. Type of assay: cell-based.
Assay [4] deals with Haemophilus influenzae ATCC 49247. The assay is described as above. As to conditions: ATCC49247; Haemophilus influenzae ATCC 49247; 16-20 h; mode of three independent experiments; read-out: MIC, Hi ATCC 49247. Type of assay: cell-based.
Assay [5] concerns Staphylococcus aureus ATCC 29213. The description is as above. Type of assay: cell-based. As to conditions: ATCC29213; Staphylococcus aureus ATCC 29213; 16-20 h; mode of three independent experiments; read-out: MIC, Sa ATCC 29213.
Assay [6] has as its system Acinetobacter baumannii NCTC 13420. The description is as above. Type of assay: cell-based. As to conditions: NCTC13420; Acinetobacter baumannii NCTC 13420; 16-20 h; mode of three independent experiments; read-out: MIC, Ab NCTC 13420.
The subject of assay [7] is Acinetobacter baumannii ATCC 19606. The assay is described as above. The class given is cell-based. As to conditions: ATCC19606; Acinetobacter baumannii ATCC 19606; 16-20 h; mode of three independent experiments; read-out: MIC, Ab ATCC 19606.
Assay [8] relates to E. coli ATCC BAA-2452. The description is as above. As to conditions: Escherichia coli ATCC BAA-2452; 16-20 h; mode of three independent experiments; read-out: MIC, Ec ATCC BAA 2452. Type of assay: cell-based.
Assay [9] has as its system E. coli MG1655. The assay is described as above. The class given is cell-based, Escherichia coli. Particulars: Escherichia coli, MG1655, read-out: MIC, Ec MG1655 WT.
Assay [10] concerns Streptococcus pneumoniae ATCC 49619. The assay is described as above. The class given is cell-based. As to conditions: ATCC49619; Streptococcus pneumoniae ATCC 49619; 16-20 h; mode of three independent experiments; read-out: MIC, Sp ATCC 49619.
The test system of assay [11] is E. coli NCTC 13476. Described as above. The class given is cell-based. As to conditions: NCTC13476; Escherichia coli NCTC 13476; 16-20 h; mode of three independent experiments; read-out: MIC, Ec NCTC 13476.
The subject of assay [12] is human hepatic cell line (HepG2 ATCC HB-8065). In words: Human cell viability assay (CellTiter-Glo). As to conditions: Homo sapiens, HepG2, 24 h, read-out: IC50 (μg/mL) HepG2.
The subject of assay [13] is E. coli MG1655 D87G. The class given is cell-based, Escherichia coli. As to conditions: compared to the isogenic parent strain E. coli MG1655; D87G mutation on DNA gyrase subunit GyrA.
The test system of assay [14] is Pseudomonas aeruginosa ATCC 27853. In words: MIC, broth microdilution (CLSI) versus planktonic bacteria. Type of assay: cell-based. Particulars: ATCC27853; Pseudomonas aeruginosa ATCC 27853; 16-20 h; mode of three independent experiments; read-out: MIC, Pa ATCC 27853.

With `N#Cc1ccc2ncc(=O)n(CCN[C@H]3CC[C@H]4[C@H](C3)OC(=O)N4c3ccc4c(n3)NC(=O)CO4)c2c1` [Compound 64, 4-(2-{[(3aS,6S,7aS)-2-oxo-3-{3-oxo-2H,3H,4H-pyrido[3,2-b][1,4]oxazin-6-yl}-octahydro-1,3-benzoxazol-6-yl]amino}ethyl)-3-oxo-3,4-dihydroquinoxaline-6-carbonitrile], the “Fold increase in MIC, E. coli MG1655 S83L” value in [1] is on record as 0.5 fold. Besides, the MIC is less than 1 µg/mL in assay [2]; less than 1 µg/mL in assay [3]; less than 1 µg/mL in assay [4]; less than 1 µg/mL in assay [5]; less than 1 µg/mL in assay [6]; 1 to 10 µg/mL (≈ 1.99 to 19.9 µM) in assay [7]. Besides, the MIC was less than 1 µg/mL in assay [8]; less than 1 µg/mL in assay [9]; less than 1 µg/mL in assay [10]; 1 to 10 µg/mL (≈ 1.99 to 19.9 µM) in [11]; 1 to 10 µg/mL (≈ 1.99 to 19.9 µM) in assay [14]. In addition, in assay [12], the IC50 was in the range of 10 to 100 µg/mL (≈ 19.9 to 199 µM). The “Fold increase in MIC, E. coli MG1655 D87G” value in assay [13] came out at 1 fold.
Take `COc1ccc2ccc(=O)n(CCN[C@H]3CC[C@H]4[C@H](C3)OC(=O)N4c3ncc4c(n3)NC(=O)CO4)c2n1` [Compound 67, 1-(2-{[(3aS,6S,7aS)-2-oxo-3-{7-oxo-6H,7H,8H-pyrimido[5,4-b][1,4]oxazin-2-yl}-octahydro-1,3-benzoxazol-6-yl]amino}ethyl)-7-methoxy-1,2-dihydro-1,8-naphthyridin-2-one]: the “Fold increase in MIC, E. coli MG1655 S83L” value in assay [1] amounted to 1 fold. For the same compound, the MIC in [2] was less than 1 µg/mL; in assay [3], 1 to 10 µg/mL (≈ 1.97 to 19.7 µM); in assay [4], less than 1 µg/mL; in assay [5] it was less than 1 µg/mL; in [6], less than 1 µg/mL; in [7], 1 to 10 µg/mL (≈ 1.97 to 19.7 µM). Besides, the MIC in assay [8] was 1 to 10 µg/mL (≈ 1.97 to 19.7 µM); in [9], less than 1 µg/mL; in [10], less than 1 µg/mL; in assay [11], 1 to 10 µg/mL (≈ 1.97 to 19.7 µM); in [14], 1 to 10 µg/mL (≈ 1.97 to 19.7 µM). Also, the IC50 in [12] was greater than 100 µg/mL. Also, the “Fold increase in MIC, E. coli MG1655 D87G” value in assay [13] is reported as 1 fold.
For the compound `N#Cc1ccc2ncc(=O)n(CCN[C@@H]3CC[C@@H]4[C@@H](C3)OC(=O)N4c3ccc4c(n3)NC(=O)CO4)c2c1` [Compound 68, 4-(2-{[(3aR,6R,7aR)-2-oxo-3-{3-oxo-2H,3H,4H-pyrido[3,2-b][1,4]oxazin-6-yl}-octahydro-1,3-benzoxazol-6-yl]amino}ethyl)-3-oxo-3,4-dihydroquinoxaline-6-carbonitrile], the “Fold increase in MIC, E. coli MG1655 S83L” value in assay [1] worked out at 1 fold. The MIC in [2], in assay [3], in [4], in assay [5], in assay [6] and in assay [7] was less than 1 µg/mL in each case. Moreover, the MIC in assay [8] is less than 1 µg/mL; in [9] it was less than 1 µg/mL; in [10], less than 1 µg/mL; in assay [11] it was less than 1 µg/mL; in assay [14], 1 to 10 µg/mL (≈ 1.99 to 19.9 µM). Also, the IC50 in assay [12] fell in the range of 10 to 100 µg/mL (≈ 19.9 to 199 µM). The “Fold increase in MIC, E. coli MG1655 D87G” value in [13] is listed as 1 fold.
In the case of `COc1cnc2ccc(=O)n(CCN[C@@H]3CC[C@@H]4[C@@H](C3)OC(=O)N4c3ccc4c(n3)NC(=O)CO4)c2c1` [Compound 69, 1-(2-{[(3aR,6R,7aR)-2-oxo-3-{3-oxo-2H,3H,4H-pyrido[3,2-b][1,4]oxazin-6-yl}-octahydro-1,3-benzoxazol-6-yl]amino}ethyl)-7-methoxy-1,2-dihydro-1,5-naphthyridin-2-one], the “Fold increase in MIC, E. coli MG1655 S83L” value in assay [1] was 1 fold. Also, the MIC in assay [2], in assay [3], in assay [4], in assay [5], in assay [6] and in assay [7] was less than 1 µg/mL throughout. Besides, the MIC in assay [8] was less than 1 µg/mL; in [9], less than 1 µg/mL; in assay [10], less than 1 µg/mL; in assay [11], less than 1 µg/mL; in assay [14] it was 1 to 10 µg/mL (≈ 1.97 to 19.7 µM). The IC50 in assay [12] was greater than 100 µg/mL. Besides, the “Fold increase in MIC, E. coli MG1655 D87G” value in [13] was 1 fold.
Turning to `COc1cnnc(-c2cccc(CN[C@@H]3CC[C@@H]4[C@@H](C3)OC(=O)N4c3ccc4c(n3)NC(=O)CO4)c2O)c1` [Compound 72, (3aR,6R,7aR)-6-({[2-hydroxy-3-(5-methoxypyridazin-3-yl)phenyl]methyl}amino)-3-{3-oxo-2H,3H,4H-pyrido[3,2-b][1,4]oxazin-6-yl}-octahydro-1,3-benzoxazol-2-one], in [1], the “Fold increase in MIC, E. coli MG1655 S83L” value is on record as 0.5 fold. For the same compound, the MIC is less than 1 µg/mL in [2]; 1 to 10 µg/mL (≈ 1.93 to 19.3 µM) in assay [3]; less than 1 µg/mL in assay [4]; less than 1 µg/mL in assay [5]; less than 1 µg/mL in assay [6]; less than 1 µg/mL in assay [7]. In addition, the MIC was less than 1 µg/mL in [8]; less than 1 µg/mL in [9]; 1 to 10 µg/mL (≈ 1.93 to 19.3 µM) in assay [10]; 1 to 10 µg/mL (≈ 1.93 to 19.3 µM) in [11]; 1 to 10 µg/mL (≈ 1.93 to 19.3 µM) in [14]. Moreover, the IC50 in assay [12] was in the range of 10 to 100 µg/mL (≈ 19.3 to 193 µM). For the same compound, the “Fold increase in MIC, E. coli MG1655 D87G” value in [13] was determined as 0.5 fold.
Take `N#Cc1ccc2ccc(=O)n(CCCN[C@@H]3CC[C@@H]4[C@@H](C3)OC(=O)N4c3ccc4c(n3)NC(=O)CO4)c2c1` [Compound 74, 1-(3-{[(3aR,6R,7aR)-2-oxo-3-{3-oxo-2H,3H,4H-pyrido[3,2-b][1,4]oxazin-6-yl}-octahydro-1,3-benzoxazol-6-yl]amino}propyl)-2-oxo-1,2-dihydroquinoline-7-carbonitrile]: the “Fold increase in MIC, E. coli MG1655 S83L” value in assay [1] is recorded as 1 fold. The MIC in assay [2], in assay [3], in [4], in [5], in assay [6] and in assay [7] was less than 1 µg/mL in each case. Further, the MIC in [8], in assay [9], in [10], in [11] and in assay [14] was less than 1 µg/mL in each case. Also, in assay [12], the IC50 lay within 10 to 100 µg/mL (≈ 19.4 to 194 µM). For the same compound, in assay [13], the “Fold increase in MIC, E. coli MG1655 D87G” value is recorded as 1 fold.
Take `COc1ccc2ccc(=O)n(CCCN[C@H]3CC[C@H]4[C@H](C3)OC(=O)N4c3ccc4c(n3)NC(=O)CS4)c2n1` [Compound 85, 1-(3-{[(3aS,6S,7aS)-2-oxo-3-{3-oxo-2H,3H,4H-pyrido[3,2-b][1,4]thiazin-6-yl}-octahydro-1,3-benzoxazol-6-yl]amino}propyl)-7-methoxy-1,2-dihydro-1,8-naphthyridin-2-one]: the “Fold increase in MIC, E. coli MG1655 S83L” value in assay [1] was 1 fold. Further, the MIC in assay [2], in assay [3], in [4], in [5], in [6] and in assay [7] was less than 1 µg/mL each time. Further, the MIC was less than 1 µg/mL in assay [8]; less than 1 µg/mL in assay [9]; less than 1 µg/mL in assay [10]; less than 1 µg/mL in [11]; 1 to 10 µg/mL (≈ 1.86 to 18.6 µM) in [14]. For the same compound, in assay [12], the IC50 was in the range of 10 to 100 µg/mL (≈ 18.6 to 186 µM). For the same compound, the “Fold increase in MIC, E. coli MG1655 D87G” value in assay [13] is on record as 1 fold.
In the case of `O=C1COc2ccc(N3C(=O)O[C@@H]4C[C@H](NCCCn5c(=O)cnc6cc(F)c(F)cc65)CC[C@H]43)nc2N1` [Compound 88, 1-(3-{[(3aR,6R,7aR)-2-oxo-3-{3-oxo-2H,3H,4H-pyrido[3,2-b][1,4]oxazin-6-yl}-octahydro-1,3-benzoxazol-6-yl]amino}propyl)-6,7-difluoro-1,2-dihydroquinoxalin-2-one], the “Fold increase in MIC, E. coli MG1655 S83L” value in assay [1] came out at 2 fold. Besides, the MIC in assay [2], in [3], in [4], in assay [5], in assay [6] and in assay [7] was less than 1 µg/mL throughout. In addition, the MIC was less than 1 µg/mL in assay [8]; less than 1 µg/mL in assay [9]; less than 1 µg/mL in assay [10]; less than 1 µg/mL in assay [11]; 1 to 10 µg/mL (≈ 1.9 to 19 µM) in [14]. Also, the IC50 in assay [12] lay within 10 to 100 µg/mL (≈ 19 to 190 µM). In assay [13], the “Fold increase in MIC, E. coli MG1655 D87G” value is on record as 1 fold.
